According to ChEMBL document CHEMBL3867474, “Discovery of novel pyrrolidineoxy-substituted heteroaromatics as potent and selective PI3K delta inhibitors with improved physicochemical properties” (Bioorg Med Chem Lett, 2016):
Values after ≈ are worked out from the molar mass of the structure shown.

Biological target: T1, Phosphatidylinositol 4,5-bisphosphate 3-kinase catalytic subunit alpha isoform (Homo sapiens, UniProt P42336)
Assay: Inhibition of PI3K-alpha (unknown origin) by KinaseGlo assay
Settings: not given

T1 sequence (P42336 whole entry, canonical isoform): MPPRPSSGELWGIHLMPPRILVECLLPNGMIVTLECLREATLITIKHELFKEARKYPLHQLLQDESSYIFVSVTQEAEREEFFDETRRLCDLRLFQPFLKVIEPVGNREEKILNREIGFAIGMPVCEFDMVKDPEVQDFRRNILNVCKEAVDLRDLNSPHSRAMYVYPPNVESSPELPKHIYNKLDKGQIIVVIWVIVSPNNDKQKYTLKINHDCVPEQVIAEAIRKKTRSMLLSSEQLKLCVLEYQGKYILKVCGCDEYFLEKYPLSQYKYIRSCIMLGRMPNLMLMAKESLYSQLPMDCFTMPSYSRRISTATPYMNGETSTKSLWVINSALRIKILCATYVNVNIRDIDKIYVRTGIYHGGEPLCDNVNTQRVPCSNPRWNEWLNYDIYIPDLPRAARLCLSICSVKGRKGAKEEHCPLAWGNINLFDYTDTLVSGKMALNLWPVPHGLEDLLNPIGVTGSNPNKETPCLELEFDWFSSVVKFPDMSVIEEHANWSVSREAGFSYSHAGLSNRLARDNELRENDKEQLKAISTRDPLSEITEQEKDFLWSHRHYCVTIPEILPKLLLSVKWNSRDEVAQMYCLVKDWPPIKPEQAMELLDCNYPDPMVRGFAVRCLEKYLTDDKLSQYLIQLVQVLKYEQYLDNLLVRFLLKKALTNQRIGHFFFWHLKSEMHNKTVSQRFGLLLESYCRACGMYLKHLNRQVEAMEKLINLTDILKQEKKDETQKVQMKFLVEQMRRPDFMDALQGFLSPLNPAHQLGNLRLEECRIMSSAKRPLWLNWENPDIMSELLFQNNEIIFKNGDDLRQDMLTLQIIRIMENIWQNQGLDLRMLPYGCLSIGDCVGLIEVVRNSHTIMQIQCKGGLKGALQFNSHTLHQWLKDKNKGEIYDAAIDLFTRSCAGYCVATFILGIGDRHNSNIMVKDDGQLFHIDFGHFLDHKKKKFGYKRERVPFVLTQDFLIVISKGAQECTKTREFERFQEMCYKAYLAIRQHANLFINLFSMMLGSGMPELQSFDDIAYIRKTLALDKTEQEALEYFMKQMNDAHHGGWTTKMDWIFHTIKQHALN

Point of comparison: `CCC(=O)N1CC[C@H](Oc2ncnc3ccc(-c4cnc(OC)c(C#N)c4)cc23)C1`, IC50 386 nM. Against it:
- CCC(=O)N1CC[C@H](Oc2cnc3ccc(-c4ccc(OC)c(OC)c4)cc3n2)C1 — 8.4-fold higher, 3230 nM
- CCC(=O)N1CC[C@H](Oc2ccnc3ccc(-c4ccc(OC)nc4)nc23)C1 — within 1.5-fold, 424 nM
- COc1ccc(-c2ccc3ncnc(O[C@@H]4CCN(C)C4)c3c2)cc1OC — 2.2-fold higher, 842 nM
- COc1ccc(-c2ccc3ncnc(O[C@@H]4CCN(C(C)=O)C4)c3c2)cc1OC — 1.8-fold higher, 676 nM
- COc1ccc(-c2ccc3ncnc(O[C@H]4CCN(C)C4)c3c2)cc1OC — 2.3-fold higher, 888 nM

Biological target: T2, Phosphatidylinositol 4,5-bisphosphate 3-kinase catalytic subunit beta isoform (Homo sapiens, UniProt P42338)
Assay: Inhibition of PI3K-beta (unknown origin) by KinaseGlo assay
Settings: not given

T2 sequence (P42338 whole entry, canonical isoform): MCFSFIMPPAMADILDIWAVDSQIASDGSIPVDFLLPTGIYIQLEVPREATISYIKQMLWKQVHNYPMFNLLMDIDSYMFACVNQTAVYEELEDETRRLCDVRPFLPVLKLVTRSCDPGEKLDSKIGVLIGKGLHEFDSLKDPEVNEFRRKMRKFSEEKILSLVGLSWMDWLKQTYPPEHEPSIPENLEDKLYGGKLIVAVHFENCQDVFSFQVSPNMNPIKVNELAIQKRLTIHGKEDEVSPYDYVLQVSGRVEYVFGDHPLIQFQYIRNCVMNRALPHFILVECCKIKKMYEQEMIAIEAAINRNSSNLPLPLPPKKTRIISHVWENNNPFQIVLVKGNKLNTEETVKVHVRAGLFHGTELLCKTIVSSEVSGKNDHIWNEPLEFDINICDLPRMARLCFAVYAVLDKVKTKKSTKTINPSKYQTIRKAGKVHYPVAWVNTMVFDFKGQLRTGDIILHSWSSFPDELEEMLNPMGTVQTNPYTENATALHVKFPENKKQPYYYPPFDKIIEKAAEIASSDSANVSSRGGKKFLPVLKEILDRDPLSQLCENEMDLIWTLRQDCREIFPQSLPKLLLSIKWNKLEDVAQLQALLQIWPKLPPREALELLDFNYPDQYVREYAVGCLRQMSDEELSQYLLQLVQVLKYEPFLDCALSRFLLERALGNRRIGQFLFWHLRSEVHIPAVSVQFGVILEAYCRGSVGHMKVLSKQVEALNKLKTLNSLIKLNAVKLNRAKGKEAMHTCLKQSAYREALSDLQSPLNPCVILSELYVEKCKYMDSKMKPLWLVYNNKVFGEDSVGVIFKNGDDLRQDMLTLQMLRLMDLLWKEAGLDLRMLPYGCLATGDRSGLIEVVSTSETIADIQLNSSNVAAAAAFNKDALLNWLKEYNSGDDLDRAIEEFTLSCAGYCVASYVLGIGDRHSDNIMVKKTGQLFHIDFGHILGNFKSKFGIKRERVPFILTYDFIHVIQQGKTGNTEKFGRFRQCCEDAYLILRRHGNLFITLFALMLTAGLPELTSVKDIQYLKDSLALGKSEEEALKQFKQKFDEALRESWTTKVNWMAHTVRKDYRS

Point of comparison: `COc1ccc(-c2ccc3ncnc(O[C@@H]4CCN(C(C)=O)C4)c3c2)cc1OC`, IC50 1790 nM. Against it:
- CCC(=O)N1CC[C@H](Oc2cnc3ccc(-c4ccc(OC)c(OC)c4)cc3n2)C1 — higher, > 9100 nM
- CCC(=O)N1CC[C@H](Oc2ccnc3ccc(-c4ccc(OC)nc4)nc23)C1 — 1.7-fold lower, 1030 nM
- CCC(=O)N1CC[C@H](Oc2ncnc3ccc(-c4cnc(OC)c(C#N)c4)cc23)C1 — 5-fold lower, 360 nM
- COc1ccc(-c2ccc3ncnc(O[C@@H]4CCN(C)C4)c3c2)cc1OC — within 1.5-fold, 1940 nM
- COc1ccc(-c2ccc3ncnc(O[C@H]4CCN(C)C4)c3c2)cc1OC — within 1.5-fold, 1480 nM

Biological target: Phosphatidylinositol 4,5-bisphosphate 3-kinase catalytic subunit gamma isoform (Homo sapiens, UniProt P48736)
Assay: Inhibition of PI3K-gamma (unknown origin) by KinaseGlo assay
Settings: not given

Phosphatidylinositol 4,5-bisphosphate 3-kinase catalytic subunit gamma isoform, sequence (P48736 whole entry, canonical isoform): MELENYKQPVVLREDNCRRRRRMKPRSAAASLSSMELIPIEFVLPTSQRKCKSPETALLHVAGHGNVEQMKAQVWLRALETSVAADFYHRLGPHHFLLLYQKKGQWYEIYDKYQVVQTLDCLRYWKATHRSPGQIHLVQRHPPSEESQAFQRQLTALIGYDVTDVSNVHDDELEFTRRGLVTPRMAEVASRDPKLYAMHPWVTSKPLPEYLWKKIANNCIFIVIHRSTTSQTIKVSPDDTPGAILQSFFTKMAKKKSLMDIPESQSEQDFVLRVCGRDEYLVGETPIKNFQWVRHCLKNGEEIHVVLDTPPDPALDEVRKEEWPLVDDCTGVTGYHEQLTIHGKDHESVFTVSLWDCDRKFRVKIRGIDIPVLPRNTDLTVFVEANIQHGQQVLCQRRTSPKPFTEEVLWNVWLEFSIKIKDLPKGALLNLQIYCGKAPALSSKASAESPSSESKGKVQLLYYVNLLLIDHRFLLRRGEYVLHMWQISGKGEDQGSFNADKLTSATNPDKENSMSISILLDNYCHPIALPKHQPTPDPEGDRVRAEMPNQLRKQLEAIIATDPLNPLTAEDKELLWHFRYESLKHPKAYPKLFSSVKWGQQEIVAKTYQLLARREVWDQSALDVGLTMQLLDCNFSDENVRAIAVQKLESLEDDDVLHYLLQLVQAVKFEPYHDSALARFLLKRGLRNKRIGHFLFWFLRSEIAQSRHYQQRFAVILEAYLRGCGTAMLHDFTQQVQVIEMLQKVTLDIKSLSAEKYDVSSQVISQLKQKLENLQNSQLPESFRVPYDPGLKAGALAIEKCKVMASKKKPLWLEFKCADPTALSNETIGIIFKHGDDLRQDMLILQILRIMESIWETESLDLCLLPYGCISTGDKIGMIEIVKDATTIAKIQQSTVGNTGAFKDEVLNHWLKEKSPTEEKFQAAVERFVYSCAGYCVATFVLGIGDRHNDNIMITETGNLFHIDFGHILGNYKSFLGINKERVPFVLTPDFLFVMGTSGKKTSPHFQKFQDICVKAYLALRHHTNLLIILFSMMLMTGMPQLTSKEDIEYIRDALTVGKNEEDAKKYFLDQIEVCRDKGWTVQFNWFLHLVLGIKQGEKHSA

Point of comparison: `CCC(=O)N1CC[C@H](Oc2cnc3ccc(-c4ccc(OC)c(OC)c4)cc3n2)C1`, IC50 3780 nM. Against it:
- CCC(=O)N1CC[C@H](Oc2ccnc3ccc(-c4ccc(OC)nc4)nc23)C1 — within 1.5-fold, 2940 nM
- CCC(=O)N1CC[C@H](Oc2ncnc3ccc(-c4cnc(OC)c(C#N)c4)cc23)C1 — 3.9-fold lower, 978 nM
- COc1ccc(-c2ccc3ncnc(O[C@@H]4CCN(C)C4)c3c2)cc1OC — 1.8-fold lower, 2070 nM
- COc1ccc(-c2ccc3ncnc(O[C@@H]4CCN(C(C)=O)C4)c3c2)cc1OC — 3.1-fold lower, 1230 nM
- COc1ccc(-c2ccc3ncnc(O[C@H]4CCN(C)C4)c3c2)cc1OC — 3.1-fold lower, 1210 nM

Biological target: T3, Phosphatidylinositol 4,5-bisphosphate 3-kinase catalytic subunit delta isoform (Homo sapiens, UniProt O00329)
T3 sequence (O00329 whole entry): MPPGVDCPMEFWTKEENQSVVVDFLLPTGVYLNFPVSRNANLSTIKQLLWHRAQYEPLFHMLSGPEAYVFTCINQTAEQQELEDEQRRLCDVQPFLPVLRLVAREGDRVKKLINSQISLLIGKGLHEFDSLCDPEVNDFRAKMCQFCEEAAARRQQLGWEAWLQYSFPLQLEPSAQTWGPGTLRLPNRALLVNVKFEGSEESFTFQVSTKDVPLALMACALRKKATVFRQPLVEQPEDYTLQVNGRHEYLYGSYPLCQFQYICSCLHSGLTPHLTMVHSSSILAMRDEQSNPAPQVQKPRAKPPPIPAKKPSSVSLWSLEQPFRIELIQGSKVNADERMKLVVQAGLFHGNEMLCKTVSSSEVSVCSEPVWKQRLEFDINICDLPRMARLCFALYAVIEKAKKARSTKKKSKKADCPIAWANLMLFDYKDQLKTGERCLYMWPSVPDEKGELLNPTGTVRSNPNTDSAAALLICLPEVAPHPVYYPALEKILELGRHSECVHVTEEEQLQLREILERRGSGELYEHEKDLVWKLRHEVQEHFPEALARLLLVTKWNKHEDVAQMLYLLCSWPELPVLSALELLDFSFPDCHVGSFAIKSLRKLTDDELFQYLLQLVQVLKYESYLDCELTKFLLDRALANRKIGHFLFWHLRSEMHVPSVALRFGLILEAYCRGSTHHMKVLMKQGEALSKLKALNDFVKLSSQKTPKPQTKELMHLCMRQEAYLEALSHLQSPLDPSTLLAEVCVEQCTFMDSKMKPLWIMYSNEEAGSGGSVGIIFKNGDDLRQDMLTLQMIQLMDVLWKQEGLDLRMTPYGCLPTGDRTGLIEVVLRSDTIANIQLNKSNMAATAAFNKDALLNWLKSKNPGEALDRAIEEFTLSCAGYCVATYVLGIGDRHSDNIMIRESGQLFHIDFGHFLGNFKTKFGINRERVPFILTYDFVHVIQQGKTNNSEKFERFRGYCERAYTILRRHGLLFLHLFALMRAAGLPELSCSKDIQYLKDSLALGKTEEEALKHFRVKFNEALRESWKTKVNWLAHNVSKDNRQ
Assay: Inhibition of PI3K-delta (unknown origin) by KinaseGlo assay
Settings: not given

Point of comparison: `COc1ccc(-c2ccc3ncnc(O[C@@H]4CCN(C)C4)c3c2)cc1OC`, IC50 110 nM. Against it:
- CCC(=O)N1CC[C@H](Oc2cnc3ccc(-c4ccc(OC)c(OC)c4)cc3n2)C1 — 4.4-fold higher, 488 nM
- CCC(=O)N1CC[C@H](Oc2ccnc3ccc(-c4ccc(OC)nc4)nc23)C1 — 5-fold lower, 22 nM
- CCC(=O)N1CC[C@H](Oc2ncnc3ccc(-c4cnc(OC)c(C#N)c4)cc23)C1 — 22-fold lower, 5 nM
- COc1ccc(-c2ccc3ncnc(O[C@@H]4CCN(C(C)=O)C4)c3c2)cc1OC — within 1.5-fold, 146 nM
- COc1ccc(-c2ccc3ncnc(O[C@H]4CCN(C)C4)c3c2)cc1OC — within 1.5-fold, 130 nM

Biological target: T1, Phosphatidylinositol 4,5-bisphosphate 3-kinase catalytic subunit alpha isoform
Assay: Inhibition of myristoylated PI3K-alpha (unknown origin) overexpressed in Rat1 cells assessed as inhibition of Akt phosphorylation
Format: cell-based
Settings: not given

Point of comparison: `CCC(=O)N1CC[C@H](Oc2ncnc3ccc(-c4cnc(OC)c(C#N)c4)cc23)C1`, IC50 1380 nM. Against it:
- CCC(=O)N1CC[C@H](Oc2ccnc3ccc(-c4ccc(OC)nc4)nc23)C1 — 1.7-fold higher, 2360 nM

Biological target: T2, Phosphatidylinositol 4,5-bisphosphate 3-kinase catalytic subunit beta isoform
Assay: Inhibition of myristoylated PI3K-beta (unknown origin) overexpressed in Rat1 cells assessed as inhibition of Akt phosphorylation
Format: cell-based
Settings: not given

Point of comparison: `CCC(=O)N1CC[C@H](Oc2ncnc3ccc(-c4cnc(OC)c(C#N)c4)cc23)C1`, IC50 1280 nM. Against it:
- CCC(=O)N1CC[C@H](Oc2ccnc3ccc(-c4ccc(OC)nc4)nc23)C1 — 2.5-fold higher, 3210 nM

Biological target: T3, Phosphatidylinositol 4,5-bisphosphate 3-kinase catalytic subunit delta isoform
Assay: Inhibition of myristoylated PI3K-delta (unknown origin) overexpressed in Rat1 cells assessed as inhibition of Akt phosphorylation
Format: cell-based
Settings: not given

Point of comparison: `CCC(=O)N1CC[C@H](Oc2ccnc3ccc(-c4ccc(OC)nc4)nc23)C1`, IC50 646 nM. Against it:
- CCC(=O)N1CC[C@H](Oc2ncnc3ccc(-c4cnc(OC)c(C#N)c4)cc23)C1 — 8.2-fold lower, 79 nM

Test system: not listed separately
Assay: Lipophilicity, log P of the compound by high-throughput assay
Format: physicochemical
Settings: octanol/water

Point of comparison: `COc1ccc(-c2ccc3ncnc(O[C@H]4CCN(C)C4)c3c2)cc1OC`, logP 3.6. Against it:
- CCC(=O)N1CC[C@H](Oc2cnc3ccc(-c4ccc(OC)c(OC)c4)cc3n2)C1 — within 0.2 log units, 3.7
- CCC(=O)N1CC[C@H](Oc2ccnc3ccc(-c4ccc(OC)nc4)nc23)C1 — lower, 2.2
- CCC(=O)N1CC[C@H](Oc2ncnc3ccc(-c4cnc(OC)c(C#N)c4)cc23)C1 — lower, 2.6
- COc1ccc(-c2ccc3ncnc(O[C@@H]4CCN(C)C4)c3c2)cc1OC — the same, 3.6
- COc1ccc(-c2ccc3ncnc(O[C@@H]4CCN(C(C)=O)C4)c3c2)cc1OC — lower, 2.4

Test system: not listed separately
Assay: Solubility of the compound at pH 6.8 by high-throughput equilibrium analysis
Format: physicochemical
Settings: buffer

Point of comparison: `CCC(=O)N1CC[C@H](Oc2ncnc3ccc(-c4cnc(OC)c(C#N)c4)cc23)C1`, solubility thermodynamic 10 µM (≈ 4.03 µg/mL). Against it:
- CCC(=O)N1CC[C@H](Oc2cnc3ccc(-c4ccc(OC)c(OC)c4)cc3n2)C1 — 8-fold higher, 80 µM (≈ 32.6 µg/mL)
- COc1ccc(-c2ccc3ncnc(-c4cccc(C(=O)N5CCN(C(C)=O)CC5)c4)c3c2)cc1OC — 61-fold higher, 610 µM (≈ 303 µg/mL)
- CCC(=O)N1CC[C@H](Oc2ccnc3ccc(-c4ccc(OC)nc4)nc23)C1 — higher, > 1000 µM
- COc1ccc(-c2ccc3ncnc(O[C@@H]4CCN(C)C4)c3c2)cc1OC — higher, > 1000 µM
- COc1ccc(-c2ccc3ncnc(O[C@@H]4CCN(C(C)=O)C4)c3c2)cc1OC — higher, > 1000 µM
- COc1ccc(-c2ccc3ncnc(O[C@H]4CCN(C)C4)c3c2)cc1OC — higher, > 1000 µM

Biological target: T4, Phosphatidylinositol 4,5-bisphosphate 3-kinase catalytic subunit delta isoform (Homo sapiens) (UniProt O00329)
T4 sequence (whole entry): T3 sequence (O00329 whole entry)
Assay: Selectivity ratio of IC50 for myristoylated PI3K-delta (unknown origin) overexpressed in Rat1 cells to IC50 for PI3K-delta (unknown origin)
Format: cell-based
Settings: not given

Point of comparison: `CCC(=O)N1CC[C@H](Oc2ccnc3ccc(-c4ccc(OC)nc4)nc23)C1`, Ratio IC50 29. Against it:
- CCC(=O)N1CC[C@H](Oc2ncnc3ccc(-c4cnc(OC)c(C#N)c4)cc23)C1 — lower, 16
